The record followed here is patent publication US20110105472A1, “Diaminopyrimidines as crop protection agents” (Bayer CropScience AG, priority 2008, published 2011).

The data set can be described thus: logP by LC-MS, method [b], acidic range pH 2.7. It is filed as physicochemical.

The structures appear in SMILES notation.

As to `Brc1cnc(Nc2ccc3[nH]ccc3c2)nc1NC1CCC1` [Compound 1], the log p (pH 2.7) is 1.59[b].

Turning to `Brc1cnc(Nc2ccc3cc[nH]c3c2)nc1NC1CCC1` [Compound 2], for the setting “pH 2.7”, the log p is 1.7[b].

In the case of `CCS(=O)(=O)c1nc2ccc(Nc3ncc(Br)c(NC4CCC4)n3)cc2s1` [Compound 3], the log p (method [b], LC-MS, acidic range pH 2.7) was 2.91[b].

For `O=C1CCc2cc(Nc3ncc(Br)c(NC4CCC4)n3)ccc2N1` [Compound 4], under “pH 2.7”, the log p is 1.49[b].

On to `O=C1COc2ccc(Nc3ncc(Br)c(NC4CCC4)n3)cc2N1` [Compound 6], for which the log p (pH 2.7) was 1.61[b].

As for `Cc1nc2cc(Nc3ncc(Br)c(NC4CCC4)n3)ccc2s1` [Compound 10], the log p (pH 2.7) is 2.11[b].

In the case of `CC(=O)N1CCc2ccc(Nc3ncc(Br)c(NC4CCC4)n3)cc21` [Compound 12], the log p (pH 2.7) was 1.78[b].

Take `CN1C(=O)COc2ccc(Nc3ncc(Br)c(NC4CCC4)n3)cc21` [Compound 13]: the log p (pH 2.7) was 1.83[b].

Take `O=C1CCCc2ccc(Nc3ncc(Br)c(NC4CCC4)n3)cc2N1` [Compound 15]: the log p (pH 2.7) is 1.75[b].

In the case of `O=c1[nH]c2cc(Nc3ncc(Br)c(NC4CCC4)n3)ccc2o1` [Compound 16], for the setting “pH 2.7”, the log p was 1.61[b].

In the case of `CC(=O)N1CCc2cc(Nc3ncc(Br)c(NC4CCC4)n3)ccc21` [Compound 17], under “pH 2.7”, the log p was 1.68[b].

Consider `FC1(F)Oc2ccc(Nc3ncc(Br)c(NC4CCC4)n3)cc2OC1(F)F` [Compound 18], for which, where the note is “pH 2.7”, the log p was 4.56[b].

For the compound `Brc1cnc(Nc2ccc3c(c2)OCO3)nc1NC1CCC1` [Compound 19], the log p (pH 2.7) was 1.87[b].

As for `CCc1nc2cc(Nc3ncc(Br)c(NC4CCC4)n3)ccc2o1` [Compound 21], under “pH 2.7”, the log p was 2.06[b].

For the compound `COc1cc(Nc2ncc(Br)c(NC3CCC3)n2)ccc1F` [Compound 31], the log p (pH 2.7) is 2.41[b].

`CC(=O)c1cccc(Nc2ncc(Br)c(NC3CCC3)n2)c1` [Compound 32]: the log p (pH 2.7) was 2.28[b].

Consider `Brc1cnc(Nc2cccc(-c3nccs3)c2)nc1NC1CCC1` [Compound 33], for which the log p (pH 2.7) is 2.8[b].

For the compound `CCOc1ccc(Nc2ncc(Br)c(NC3CCC3)n2)cc1` [Compound 35], the log p (pH 2.7) is 2.17[b].

Regarding `COCc1cccc(Nc2ncc(Br)c(NC3CCC3)n2)c1` [Compound 39], the log p (pH 2.7) is 2.2[b].

Regarding `CC(C)c1ccc(Nc2ncc(Br)c(NC3CCC3)n2)cc1` [Compound 40], the log p (pH 2.7) is 3.13[b].

On to `COCC(C)Oc1ccc(Nc2ncc(Br)c(NC3CCC3)n2)cc1` (stereo not drawn) [Compound 41], for which, for the setting “pH 2.7”, the log p was 2.11[b].

Turning to `COCc1cccc(Nc2ncc(Cl)c(NC3CCC3)n2)c1` [Compound 42], the log p (pH 2.7) was 2.05[b].

As to `COC(=O)Nc1ccc(Nc2ncc(Br)c(NC3CCC3)n2)cc1` [Compound 46], for the setting “pH 2.7”, the log p was 1.62[b].

With `Fc1ccc(Nc2ncc(Br)c(NC3CCC3)n2)cc1` [Compound 49], the log p (pH 2.7) is 2.33[b].

For the compound `COc1cc(Nc2ncc(Br)c(NC3CCC3)n2)cc(OC)c1` [Compound 53], for the setting “pH 2.7”, the log p is 2.12[b].

For `Cc1ccccc1Nc1ncc(Br)c(NC2CCC2)n1` [Compound 60], the log p (pH 2.7) was 1.87[b].

On to `Cc1cc(C)c(C)c(Nc2ncc(Br)c(NC3CCC3)n2)c1` [Compound 61], for which, for the setting “pH 2.7”, the log p is 2.57[b].

With `Fc1ccc(Nc2ncc(Br)c(NC3CCC3)n2)cc1` [Compound 62], the log p (pH 2.7) is 2.6[b].

For the compound `Fc1cc(C(F)(F)F)ccc1Nc1ncc(Br)c(NC2CCC2)n1` [Compound 63], where the note is “pH 2.7”, the log p was 3.9[b].

In the case of `N#Cc1cccc(Nc2ncc(Br)c(NC3CCC3)n2)c1` [Compound 64], where the note is “pH 2.7”, the log p was 2.67[b].

As to `COc1ccc(Nc2ncc(Br)c(NC3CCC3)n2)cc1OC` [Compound 65], the log p (pH 2.7) was 1.71[b].

`Cc1ccc(NS(=O)(=O)c2cc(Nc3ncc(Br)c(NC4CCC4)n3)ccc2C)cc1` [Compound 66]: the log p (pH 2.7) was 3.07[b].

With `COc1ccccc1Nc1ncc(Br)c(NC2CCC2)n1` [Compound 68], the log p (pH 2.7) was 2.23[b].
